Assay results from EP2147919A1, “Heterocyclic substituted amides, method for their manufacture and their use as herbicides” (Bayer CropScience Aktiengesellschaft, priority 2008, dated 2010).

Columns and labels:
Log P = format: physicochemical
MATIN [1] = experiment: Herbicidal action post-emergence (greenhouse pot test, visual rating); format: in vivo, Matricaria inodora; conditions: Nachauflauf, 1280 g/ha, visual rating after ca. 3 weeks vs untreated controls
Excerpt: (§1) Samen von mono- bzw. dikotylen Unkraut- bzw. Kulturpflanzen werden in Holzfasertöpfen in sandigem Lehmboden ausgelegt, mit Erde abgedeckt und im Gewächshaus unter guten Wachstumsbedingungen angezogen. 2 bis 3 Wochen nach der Aussaat werden die Versuchspflanzen im Einblattstadium behandelt. Die in Form von benetzbaren Pulvern (WP) oder als Emulsionskonzentrate (EC) formulierten erfindungsgemäßen Verbindungen werden dann als wäßrige Suspension bzw. Emulsion mit einer Wasseraufwandmenge von umgerechnet 600 bis 800 l/ha unter Zusatz von 0,2% Netzmittel auf die grünen Pflanzenteile gesprüht. Nach ca. 3 Wochen Standzeit der Versuchspflanzen im Gewächshaus unter optimalen Wachstumsbedingungen wird die Wirkung der Präparate visuell im Vergleich zu unbehandelten Kontrollen bonitiert (herbizide Wirkung in Prozent (%): 100% Wirkung = Pflanzen sind abgestorben, 0 % Wirkung = wie Kontrollpflanzen).

STEME [2] = experiment: as above; format: in vivo, Stellaria media; conditions: Nachauflauf, 1280 g/ha, visual rating after ca. 3 weeks vs untreated controls
Excerpt: as §1

ABUTH [3] = experiment: as above; format: in vivo, Abutilon theophrasti; conditions: Nachauflauf, 1280 g/ha, visual rating after ca. 3 weeks vs untreated controls
Excerpt: as §1

VIOTR [4] = experiment: as above; format: in vivo, Viola tricolor; conditions: Nachauflauf, 1280 g/ha, visual rating after ca. 3 weeks vs untreated controls
Excerpt: as §1

VERPE [5] = experiment: as above; format: in vivo, Veronica persica; conditions: Nachauflauf, 1280 g/ha, visual rating after ca. 3 weeks vs untreated controls
Excerpt: as §1

AMARE [6] = experiment: as above; format: in vivo, Amaranthus retroflexus; conditions: Nachauflauf, 1280 g/ha, visual rating after ca. 3 weeks vs untreated controls
Excerpt: as §1

STEME [7] = experiment: Herbicidal action pre-emergence (greenhouse pot test, visual rating); format: in vivo, Stellaria media; conditions: Vorauflauf, 1280 g/ha, visual rating after 3 weeks vs untreated controls
Excerpt: (§2) Samen von mono- bzw. dikotylen Unkraut- bzw. Kulturpflanzen werden in Holzfasertöpfen in sandiger Lehmerde ausgelegt und mit Erde abgedeckt. Die in Form von benetzbaren Pulvern (WP) oder als Emulsionskonzentrate (EC) formulierten erfindungsgemäßen Verbindungen werden dann als wäßrige Suspension bzw. Emulsion mit einer Wasseraufwandmenge von umgerechnet 600 bis 800 l/ha unter Zusatz von 0,2% Netzmittel auf die Oberfläche der Abdeckerde appliziert.
(§3) Nach der Behandlung werden die Töpfe im Gewächshaus aufgestellt und unter guten Wachstumsbedingungen für die Testpflanzen gehalten. Die visuelle Bonitur der Schäden an den Versuchspflanzen erfolgt nach einer Versuchszeit von 3 Wochen im Vergleich zu unbehandelten Kontrollen (herbizide Wirkung in Prozent (%): 100% Wirkung = Pflanzen sind abgestorben, 0 % Wirkung = wie Kontrollpflanzen).

SETVI = experiment: as above; format: in vivo, Setaria viridis; conditions: Vorauflauf, 1280 g/ha, visual rating after 3 weeks vs untreated controls
Excerpt: as §2, §3

AMARE [8] = experiment: as above; format: in vivo, Amaranthus retroflexus; conditions: Vorauflauf, 1280 g/ha, visual rating after 3 weeks vs untreated controls
Excerpt: as §2, §3

MATIN [9] = experiment: as above; format: in vivo, Matricaria inodora; conditions: Vorauflauf, 1280 g/ha, visual rating after 3 weeks vs untreated controls
Excerpt: as §2, §3

VERPE [10] = experiment: as above; format: in vivo, Veronica persica; conditions: Vorauflauf, 1280 g/ha, visual rating after 3 weeks vs untreated controls
Excerpt: as §2, §3

PHBPU = experiment: Herbicidal action post-emergence (greenhouse pot test, visual rating); format: in vivo, Pharbitis purpurea; conditions: Nachauflauf, 1280 g/ha, visual rating after ca. 3 weeks vs untreated controls
Excerpt: as §1

Schadpflanzen = experiment: Herbicidal action pre-emergence, summary over the weed spectrum; format: in vivo; conditions: Vorauflaufverfahren, Aufwandmenge von 1.28 kg und weniger Aktivsubstanz pro Hektar
Excerpt: as §2, §3

VIOTR [11] = experiment: Herbicidal action pre-emergence (greenhouse pot test, visual rating); format: in vivo, Viola tricolor; conditions: Vorauflauf, 1280 g/ha, visual rating after 3 weeks vs untreated controls
Excerpt: as §2, §3

POLCO = experiment: as above; format: in vivo, Polygonum convolvolus; conditions: Vorauflauf, 1280 g/ha, visual rating after 3 weeks vs untreated controls
Excerpt: as §2, §3

ABUTH [12] = experiment: as above; format: in vivo, Abutilon theophrasti; conditions: Vorauflauf, 1280 g/ha, visual rating after 3 weeks vs untreated controls
Excerpt: as §2, §3

Row | Structure (SMILES) | logP (Log P) | herbizide Wirkung STEME (STEME [2]) | herbizide Wirkung ABUTH (ABUTH [3]) | herbizide Wirkung VIOTR (VIOTR [4]) | herbizide Wirkung STEME (STEME [7]) | herbizide Wirkung AMARE (AMARE [8]) | herbizide Wirkung VERPE (VERPE [10]) | other results
1 | COc1ccc(C(NC(=O)c2cnccc2OC)c2ccon2)c(F)c1 (stereo not shown) [Beispiel 189] | 1 |  |  |  |  |  |  | 
2 | O=C(NC(c1ccc(Cl)cc1)c1ccon1)c1ncn(Cc2ccccc2)c1[N+](=O)[O-] (stereo not shown) [Beispiel 289] | 2.63 |  |  |  |  |  |  | 
3 | COc1ccc(C(NC(=O)c2c(OC(C)C)cc(C)nc2Cl)c2ccon2)c(F)c1 (stereo not shown) [Beispiel 187] | 2.18 |  |  |  |  |  |  | 
4 | Cc1cc(C(=O)NC(c2ccc(Cl)cc2)c2ccon2)cs1 (stereo not shown) [Beispiel 295] |  | 100% | 80% | 90% |  |  |  | herbizide Wirkung MATIN (MATIN [1]): 80%
5 | COc1ccc(C(NC(=O)c2ccc(C)nc2)c2ccon2)c(F)c1 (stereo not shown) [Beispiel 212] |  | 100% | 80% |  |  |  |  | herbizide Wirkung VERPE (VERPE [5]): 80%; herbizide Wirkung AMARE (AMARE [6]): 80%
6 | COc1ccc(C(NC(=O)c2c(C)nn(C)c2Cl)c2ccon2)c(F)c1 (stereo not shown) [Beispiel 261] |  | 100% | 80% | 100% | 100% | 100% | 100% | herbizide Wirkung SETVI (SETVI): 90%; herbizide Wirkung MATIN (MATIN [1]): 100%; herbizide Wirkung VERPE (VERPE [5]): 100%; herbizide Wirkung MATIN (MATIN [9]): 100%; herbizide Wirkung AMARE (AMARE [6]): 90%; herbizide Wirkung PHBPU (PHBPU): 80%
7 | COc1ccc(C(NC(=O)c2c(OC(C)C)cc(C)nc2Br)c2ccon2)c(F)c1 (stereo not shown) [Beispiel 3, 2-Brom-N-[(2-fluor-4-methoxyphenyl)(isoxazol-3-yl)methyl]-4-isopropoxy-6-methylnicotinamid] |  |  |  |  |  |  |  | herbizide Wirkung gegen Schadpflanzen (Schadpflanzen): sehr gute herbizide Wirkung
8 | Cc1cc(OC(C)C)c(C(=O)NC(c2cnc(Cl)c(Cl)c2)c2ccon2)c(Cl)n1 (stereo not shown) [Beispiel 222] | 2.37 |  |  |  |  |  |  | 
9 | Cc1cc(Cl)c(C(=O)NC(c2ccc(F)c(F)c2)c2ccon2)c(OC(C)C)n1 (stereo not shown) [Beispiel 164] |  |  | 90% | 80% | 90% | 100% | 100% | herbizide Wirkung VIOTR (VIOTR [11]): 100%; herbizide Wirkung VERPE (VERPE [5]): 80%; herbizide Wirkung POLCO (POLCO): 100%; herbizide Wirkung AMARE (AMARE [6]): 100%; herbizide Wirkung PHBPU (PHBPU): 80%
10 | Cc1nn(C)cc1C(=O)NC(c1ccc(Cl)cc1)c1ccon1 (stereo not shown) [Beispiel 265] |  | 100% | 100% | 100% | 100% | 100% | 100% | herbizide Wirkung VIOTR (VIOTR [11]): 100%; herbizide Wirkung MATIN (MATIN [1]): 80%; herbizide Wirkung VERPE (VERPE [5]): 100%; herbizide Wirkung ABUTH (ABUTH [12]): 90%; herbizide Wirkung MATIN (MATIN [9]): 100%; herbizide Wirkung AMARE (AMARE [6]): 100%
11 | Cn1nc(C(F)(F)F)c(C(=O)NC(c2ccc(Cl)cc2)c2ccon2)c1Cl (stereo not shown) [Beispiel 262] |  |  |  |  | 100% | 100% | 100% | herbizide Wirkung VIOTR (VIOTR [11]): 100%; herbizide Wirkung MATIN (MATIN [9]): 90%
12 | CCCOc1cc(C)nc(Br)c1C(=O)NC(c1ccc(Cl)cc1)c1ccon1 (stereo not shown) [Beispiel 35] | 2.63 |  |  |  |  |  |  | herbizide Wirkung gegen Schadpflanzen (Schadpflanzen): sehr gute herbizide Wirkung
13 | CCCOc1cc(C)nc(Cl)c1C(=O)NC(c1cnc(Cl)c(Cl)c1)c1ccon1 (stereo not shown) [Beispiel 221] | 2.45 |  |  |  |  |  |  | 
14 | Cc1cc(OC(C)C)c(C(=O)NC(c2cnc(Cl)c(Cl)c2)c2ccon2)c(Br)n1 (stereo not shown) [Beispiel 224] | 2.51 |  |  |  |  |  |  | 
15 | Cc1ccc(C(=O)NC(c2ccc(Cl)cc2)c2ccon2)cn1 (stereo not shown) [Beispiel 209] |  | 100% | 80% | 80% |  |  |  | 
16 | CCCOc1cc(C)nc(Br)c1C(=O)NC(c1ccon1)c1ccc(Cl)cc1Cl (stereo not shown) [Beispiel 160] |  |  |  |  | 100% | 100% | 100% | herbizide Wirkung SETVI (SETVI): 90%; herbizide Wirkung VIOTR (VIOTR [11]): 100%; herbizide Wirkung ABUTH (ABUTH [12]): 100%; herbizide Wirkung MATIN (MATIN [9]): 100%; herbizide Wirkung POLCO (POLCO): 100%
